Source: patent US9120749B2, “Quinoline derivatives and MELK inhibitors containing the same” (ONCOTHERAPY SCIENCE, INC., priority 2010, dated 2015)
Where a name gives a salt, the structure may show the parent alone. Read-outs that look alike come from different tables or passages of the source.

Tests used:
MELK = MELK (Homo sapiens, UniProt Q14680); assay: Kinase assay: MELK activity, phosphorylation of FITC-labeled histone H3 peptide measured by IMAP fluorescence polarization; format: biochemical; conditions: read-out: IC50 (μM) (kinase assay)
Sequence of MELK (Q14680 whole entry, looked up): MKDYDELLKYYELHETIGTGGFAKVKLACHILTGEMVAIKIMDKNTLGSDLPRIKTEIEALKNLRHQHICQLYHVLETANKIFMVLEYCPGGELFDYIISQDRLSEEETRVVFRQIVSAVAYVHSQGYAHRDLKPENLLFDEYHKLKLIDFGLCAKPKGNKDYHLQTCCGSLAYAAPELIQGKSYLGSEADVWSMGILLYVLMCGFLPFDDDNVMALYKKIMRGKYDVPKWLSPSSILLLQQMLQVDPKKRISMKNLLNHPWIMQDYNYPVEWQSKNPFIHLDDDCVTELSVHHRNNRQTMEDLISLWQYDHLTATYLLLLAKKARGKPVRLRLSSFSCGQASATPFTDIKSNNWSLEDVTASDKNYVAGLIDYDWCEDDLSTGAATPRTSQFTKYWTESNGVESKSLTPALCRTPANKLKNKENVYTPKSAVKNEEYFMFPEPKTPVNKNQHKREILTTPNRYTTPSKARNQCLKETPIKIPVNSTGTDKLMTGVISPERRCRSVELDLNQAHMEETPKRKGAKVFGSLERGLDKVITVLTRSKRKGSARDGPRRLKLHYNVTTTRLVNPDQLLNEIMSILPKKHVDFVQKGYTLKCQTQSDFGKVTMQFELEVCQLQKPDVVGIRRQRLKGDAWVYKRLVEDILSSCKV
Procedure, shortened: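 Substrate is FITC-labeled histone H3 peptide. Compounds come from a 12.5 mM DMSO stock, diluted so assay DMSO is 1%. The stop step adds threefold-volume progressive binding solution, followed by 0.5 h at room temperature and an FP read.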

T47D cells = assay: Cell-based assay: anti-proliferative activity, Cell Counting Kit-8, 72 hours (T47D)
Procedure, shortened: (§1)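 IC50 values come from CCK-8 growth measurements taken 72 hours post-treatment of plated cells with test compounds. Expression of MELK across the panel was assessed through immunoblot of unfractionated lysates.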

A549 cells = assay: Cell-based assay: anti-proliferative activity, Cell Counting Kit-8, 72 hours (A549); conditions: 72 hours
Procedure, shortened: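 Cell Counting Kit-8 read-out of A549 growth after 72 hours of inhibitor exposure, cells plated in 96-well format. Values reported as IC50.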

HT-1197 cells = assay: Cell-based assay: anti-proliferative activity, Cell Counting Kit-8, 72 hours (HT-1197, negative control without MELK expression); conditions: 72 hours
Procedure, shortened: as §1

DU4475 cells [1] = assay: Cell-based assay: anti-proliferative activity, Cell Counting Kit-8, 72 hours (DU4475); conditions: Homo sapiens, DU-4475, 72 h
DU4475 cells [2] = assay: as above
[3] = Homo sapiens, HT1197, 72 h, HT1197 cells (negative control, no MELK expression)
[4] = Homo sapiens, HT1197, 72 h, HT1197 cells (negative control)

Row | SMILES | IC50 (MELK) | IC50 (T47D cells; Homo sapiens, T47D, 72 h) | IC50 (A549 cells; Homo sapiens, A549, 72 h) | IC50 (HT-1197 cells; [3]) | IC50 (DU4475 cells [1]) | IC50 (HT-1197 cells; [4]) | IC50 (DU4475 cells [2]; Homo sapiens, DU-4475, 72 h) | IC50 (MELK; hydrochloride) | IC50 (T47D cells; 72 hours, hydrochloride) | IC50 (A549 cells; hydrochloride) | IC50 (HT-1197 cells; HT1197 cells (negative control), hydrochloride) | IC50 (DU4475 cells [2]; hydrochloride)
1 | CCC(=O)c1cnc2ccc(-c3cc(Cl)c(O)c(Cl)c3)cc2c1Nc1ccc(N2CCC(N)C2)nc1 (centres unmarked) [Example 761, 1-(4-(6-(3-aminopyrrolidin-1-yl)pyridin-3-ylamino)-6-(3,5-dichloro-4-hydroxyphenyl)quinolin-3-yl)propan-1-one] | 0.0026 µM | 0.031 µM | 0.053 µM | 1.5 µM | 0.022 µM |  |  |  |  |  |  | 
2 | COc1cc(-c2ccc3ncc(C(=O)C4CC4)c(Nc4ccc(NCCN(C)C)nc4)c3c2)cc(Cl)c1O [Example 746, (6-(3-chloro-4-hydroxy-5-methoxyphenyl)-4-(6-(2-(dimethylamino)ethylamino)pyridin-3-ylamino)quinolin-3-yl)(cyclopropyl)methanone] | 0.0029 µM | 0.23 µM | 0.18 µM | 6.2 µM | 0.11 µM |  |  |  |  |  |  | 
3 | CCC(=O)c1cnc2ccc(-c3cc(Cl)c(O)c(OC)c3)cc2c1N[C@H]1CC[C@H](N(C)C)CC1 [Example 755] | 0.0018 µM | 0.35 µM | 0.34 µM | 3.4 µM | 0.21 µM |  |  |  |  |  |  | 
4 | CC(=O)c1cnc2ccc(-c3cc(Cl)c(O)c(Cl)c3)cc2c1N[C@H]1CC[C@H](CN2CCC(O)C2)CC1 (some centres unmarked) [Example 753] | 0.0015 µM | 0.13 µM | 0.37 µM | 71 µM | 0.057 µM |  |  |  |  |  |  | 
5 | CC(=O)c1cnc2ccc(-c3cc(Cl)c(O)c(Cl)c3)cc2c1N[C@@H]1CCC[C@@H](CN(C)C)C1 [Example 750, 1-(6-(3,5-dichloro-4-hydroxyphenyl)-4-((1R,3R)-3-((dimethylamino)methyl)cyclohexylamino)quinolin-3-yl)ethanone] | 0.0023 µM | 0.2 µM | 0.39 µM | 1.7 µM | 0.19 µM |  |  |  |  |  |  | 
6 | CCC(=O)c1cnc2ccc(-c3cc(F)c(O)c(Cl)c3)cc2c1Nc1ccc(N2CCC(N)C2)nc1 (centres unmarked) [Example 760, 1-(4-(6-(3-aminopyrrolidin-1-yl)pyridin-3-ylamino)-6-(3-chloro-5-fluoro-4-hydroxyphenyl)quinolin-3-yl)propan-1-one] | 0.0034 µM | 0.0087 µM | 0.031 µM | 0.77 µM | 0.016 µM |  |  |  |  |  |  | 
7 | CC(=O)c1cnc2ccc(-c3cc(F)c(O)c(Cl)c3)cc2c1Nc1cccc(CCN(C)C)c1 [Example 759, 1-(6-(3-chloro-5-fluoro-4-hydroxyphenyl)-4-(3-(2-(dimethylamino)ethyl)phenylamino)quinolin-3-yl)ethanone] | 0.013 µM | 0.67 µM | 0.42 µM | 10 µM | 0.2 µM |  |  |  |  |  |  | 
8 | O=C(c1cnc2ccc(-c3cc(Cl)c(O)c(Cl)c3)cc2c1N1CCC(CCN2CCCC2)CC1)C1CC1 [Example 756, cyclopropyl(6-(3,5-dichloro-4-hydroxyphenyl)-4-(4-(2-(pyrrolidin-1-yl)ethyl)piperidin-1-yl)quinolin-3-yl)methanone] |  | 0.5 µM | 0.54 µM | 10 µM | 0.27 µM |  |  |  |  |  |  | 
9 | NC1CCN(c2ncc(Nc3c(C(=O)C4CC4)cnc4ccc(-c5cc(Cl)c(O)c(Cl)c5)cc34)cn2)C1 (centres unmarked) [Example 574, (4-(2-(3-aminopyrrolidin-1-yl)pyrimidin-5-ylamino)-6-(3,5-dichloro-4-hydroxyphenyl)quinolin-3-yl)(cyclopropyl)methanone] | 0.0018 µM | 0.031 µM | 0.087 µM |  |  | 1.4 µM | 0.021 µM |  |  |  |  | 
10 | O=C(c1cnc2ccc(-c3cc(F)c(O)c(Cl)c3)cc2c1N[C@H]1C[C@H]2CC[C@@H](C1)N2)C1CC1 [Example 621, (4-((1R,3r,5S)-8-azabicyclo[3.2.1]octan-3-ylamino)-6-(3-chloro-5-fluoro-4-hydroxyphenyl)quinolin-3-yl)(cyclopropyl)methanone] | 0.01 µM | 0.24 µM | 0.91 µM |  |  | 3.9 µM | 0.11 µM |  |  |  |  | 
11 | CN(C)Cc1ccc(Nc2c(C(=O)C3CC3)cnc3cc(F)c(-c4cc(F)c(O)c(Cl)c4)cc23)cc1 [Example 541, (6-(3-Chloro-5-fluoro-4-hydroxyphenyl)-4-(4-((dimethylamino)methyl)phenylamino)-7-fluoroquinolin-3-yl)(cyclopropyl)methanone] | 0.077 µM | 0.42 µM | 0.076 µM |  |  | 1.1 µM | 0.087 µM |  |  |  |  | 
12 | CN1CCC(n2cc(Nc3c(C(=O)C4CC4)cnc4ccc(-c5cc(Cl)c(O)c(Cl)c5)cc34)cn2)CC1 [Example 593, Cyclopropyl(6-(3,5-dichloro-4-hydroxyphenyl)-4-(1-(1-methylpiperidin-4-yl)-1H-pyrazol-4-ylamino)quinolin-3-yl)methanone] | 0.0013 µM | 0.32 µM | 0.094 µM |  |  | 4.3 µM | 0.044 µM |  |  |  |  | 
13 | COc1cc(-c2ccc3ncc(C(=O)C4CC4)c(Nc4ccc(NC5CCCNC5)nc4)c3c2)cc(Cl)c1O (centres unmarked) [Example 609, (6-(3-chloro-4-hydroxy-5-methoxyphenyl)-4-(6-(piperidin-3-ylamino)pyridin-3-ylamino)quinolin-3-yl)(cyclopropyl)methanone] | 0.0025 µM | 0.22 µM | 0.68 µM |  |  | 3.9 µM | 0.34 µM |  |  |  |  | 
14 | COc1cc(-c2ccc3ncc(C(=O)C4CC4)c(NC4C[C@H]5CC[C@@H](C4)N5)c3c2)cc(Cl)c1O (stereo partly drawn) [Example 579, (4-((1R,3r,5S)-8-azabicyclo[3.2.1]octan-3-ylamino)-6-(3-chloro-4-hydroxy-5-methoxyphenyl)quinolin-3-yl)(cyclopropyl)methanone] | 0.0042 µM | 0.17 µM | 0.27 µM |  |  | 7.8 µM | 0.14 µM |  |  |  |  | 
15 | CCCC(=O)c1cnc2ccc(-c3cc(Cl)c(O)c(OC)c3)cc2c1Nc1ccc(N2CCNCC2)nc1 [Example 617, 1-(6-(3-chloro-4-hydroxy-5-methoxyphenyl)-4-(6-(piperazin-1-yl)pyridin-3-ylamino)quinolin-3-yl)butan-1-one] | 0.0042 µM | 0.33 µM | 0.19 µM |  |  | 1.7 µM | 0.32 µM |  |  |  |  | 
16 | COc1cc(-c2ccc3ncc(C(=O)C4CC4)c(Nc4ccc(N)nc4)c3c2)cc(Cl)c1O [Example 589, (4-(6-aminopyridin-3-ylamino)-6-(3-chloro-4-hydroxy-5-methoxyphenyl)quinolin-3-yl)(cyclopropyl)methanone] | 0.011 µM | 0.61 µM | 0.18 µM |  |  | 1.4 µM | 0.21 µM |  |  |  |  | 
17 | NC1CCCN(c2ccc(Nc3c(C(=O)C4CC4)cnc4ccc(-c5cc(F)c(O)c(Cl)c5)cc34)cn2)C1 (centres unmarked) [Example 562, (4-(6-(3-aminopiperidin-1-yl)pyridin-3-ylamino)-6-(3-chloro-5-fluoro-4-hydroxyphenyl)quinolin-3-yl)(cyclopropyl)methanone hydrochloride] |  |  |  |  |  |  |  | 0.0017 µM | 0.0064 µM | 0.012 µM | 0.19 µM | 0.0089 µM
18 | C=CCN(CC=C)C1(C)CCC(Nc2c(C(=O)C3CC3)cnc3ccc(-c4cc(Cl)c(O)c(Cl)c4)cc23)CC1 (centres unmarked) [Example 583, Cyclopropyl{4-[4-(diallylamino)-4-methylcyclohexylamino]-6-(3,5-dichloro-4-hydroxyphenyl)quinolin-3-yl}methanone] | 0.089 µM | 2.6 µM | 3.1 µM |  |  | 10 µM | 2.3 µM |  |  |  |  | 
